In PubChem BioAssay (NCI):
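Test compounds were applied to cells in 96-well plates for 48 hours at 5 doses. TGI denotes the concentration required for complete inhibition of growth.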

Key:
Assay in all cases: DTP human tumour cell line panel, 48 h
[1] = test system: 786-0 renal
[2] = test system: A498 renal
[3] = test system: A549 NSCLC
[4] = test system: ACHN renal
[5] = test system: BT-549 breast
[6] = test system: CAKI-1 renal
[7] = test system: CCRF-CEM leukemia
[8] = test system: COLO 205 colon
[9] = test system: DU-145 prostate
[10] = test system: EKVX NSCLC
[11] = test system: HCC-2998 colon
[12] = test system: HCT-116 colon
[13] = test system: HCT-15 colon
[14] = test system: HL-60(TB) leukemia
[15] = test system: HOP-62 NSCLC
[16] = test system: HOP-92 NSCLC
[17] = test system: HS 578T breast
[18] = test system: HT29 colon
[19] = test system: IGROV1 ovarian
[20] = test system: K-562 leukemia
[21] = test system: KM12 colon
[22] = test system: LOX IMVI melanoma
[23] = test system: M14 melanoma
[24] = test system: MALME-3M melanoma
[25] = test system: MCF7 breast
[26] = test system: MDA-MB-435
[27] = test system: MDA-N
[28] = test system: MOLT-4 leukemia
[29] = test system: NCI-H226 lung
[30] = test system: NCI-H23 lung
[31] = test system: NCI-H460 lung
[32] = test system: NCI-H522 lung
[33] = test system: NCI/ADR-RES ovarian
[34] = test system: OVCAR-3 ovarian
[35] = test system: OVCAR-4 ovarian
[36] = test system: OVCAR-5 ovarian
[37] = test system: OVCAR-8 ovarian
[38] = test system: PC-3 prostate
[39] = test system: RPMI-8226 leukemia
[40] = test system: RXF 393 renal
[41] = test system: SF-268 CNS
[42] = test system: SF-295 CNS
[43] = test system: SF-539 CNS
[44] = test system: SK-MEL-2 melanoma
[45] = test system: SK-MEL-28 melanoma
[46] = test system: SK-MEL-5 melanoma
[47] = test system: SK-OV-3 ovarian
[48] = test system: SN12C renal
[49] = test system: SNB-19 CNS
[50] = test system: SR leukemia
[51] = test system: SW-620 colon
[52] = test system: T-47D breast
[53] = test system: TK-10 renal
[54] = test system: U251 CNS
[55] = test system: UACC-257 melanoma
[56] = test system: UACC-62 melanoma
[57] = test system: UO-31 renal
[58] = test system: MDA-MB-231 breast
[59] = test system: SNB-75 CNS

Compound: CC[C@H](C)[C@H]1NC(=O)[C@@H](NC(=O)[C@@H](CC(C)C)N(C)C(=O)C2CCCN2C(=O)[C@H](C)O)[C@@H](C)OC(=O)[C@H](Cc2ccc(OC)cc2)N(C)C(=O)[C@@H]2CCCN2C(=O)[C@H](CCCCNC(=O)OCc2ccccc2)NC(=O)[C@H](C)C(=O)[C@H](C(C)C)OC(=O)C[C@@H]1O (stereo partly specified)
- TGI [1]: > 25 µM
- TGI [2]: > 25 µM
- TGI [3]: > 25 µM
- TGI [4]: > 25 µM
- TGI [5]: > 25 µM
- TGI [6]: > 25 µM
- TGI [7]: > 25 µM
- TGI [8]: 18.9 µM
- TGI [9]: > 25 µM
- TGI [10]: > 25 µM
- TGI [11]: 9.79 µM
- TGI [12]: 20.2 µM
- TGI [13]: > 25 µM
- TGI [14]: > 25 µM
- TGI [15]: > 25 µM
- TGI [16]: > 25 µM
- TGI [17]: 8.35 µM
- TGI [18]: 16.4 µM
- TGI [19]: > 25 µM
- TGI [20]: > 25 µM
- TGI [21]: 19.4 µM
- TGI [22]: > 25 µM
- TGI [23]: > 25 µM
- TGI [24]: 20.1 µM
- TGI [25]: > 25 µM
- TGI [26]: > 25 µM
- TGI [27]: > 25 µM
- TGI [28]: > 25 µM
- TGI [29]: > 25 µM
- TGI [30]: > 25 µM
- TGI [31]: > 25 µM
- TGI [32]: > 25 µM
- TGI [33]: > 25 µM
- TGI [34]: 24.8 µM
- TGI [35]: > 25 µM
- TGI [36]: > 25 µM
- TGI [37]: > 25 µM
- TGI [38]: 16.5 µM
- TGI [39]: 19.7 µM
- TGI [40]: > 25 µM
- TGI [41]: > 25 µM
- TGI [42]: > 25 µM
- TGI [43]: > 25 µM
- TGI [44]: 10.1 µM
- TGI [45]: > 25 µM
- TGI [46]: > 25 µM
- TGI [47]: > 25 µM
- TGI [48]: > 25 µM
- TGI [49]: > 25 µM
- TGI [50]: > 25 µM
- TGI [51]: > 25 µM
- TGI [52]: > 25 µM
- TGI [53]: > 25 µM
- TGI [54]: 17.6 µM
- TGI [55]: > 25 µM
- TGI [56]: > 25 µM
- TGI [57]: > 25 µM

Compound: CC(C)(C)OC(=O)n1c2ccccc2c2c(=O)nc(N3CCCCC3)sc21
- TGI [1]: > 100 µM
- TGI [2]: > 100 µM
- TGI [3]: > 100 µM
- TGI [4]: > 100 µM
- TGI [5]: > 100 µM
- TGI [6]: > 100 µM
- TGI [7]: > 100 µM
- TGI [8]: > 100 µM
- TGI [9]: > 100 µM
- TGI [10]: > 100 µM
- TGI [13]: > 100 µM
- TGI [14]: > 100 µM
- TGI [15]: > 100 µM
- TGI [16]: > 100 µM
- TGI [17]: > 100 µM
- TGI [18]: > 100 µM
- TGI [19]: > 100 µM
- TGI [20]: > 100 µM
- TGI [21]: > 100 µM
- TGI [22]: > 100 µM
- TGI [23]: > 100 µM
- TGI [24]: > 100 µM
- TGI [58]: > 100 µM
- TGI [26]: > 100 µM
- TGI [27]: > 100 µM
- TGI [28]: > 100 µM
- TGI [30]: > 100 µM
- TGI [31]: > 100 µM
- TGI [32]: > 100 µM
- TGI [33]: > 100 µM
- TGI [34]: > 100 µM
- TGI [35]: > 100 µM
- TGI [36]: > 100 µM
- TGI [37]: > 100 µM
- TGI [38]: > 100 µM
- TGI [39]: > 100 µM
- TGI [41]: > 100 µM
- TGI [42]: > 100 µM
- TGI [43]: > 100 µM
- TGI [44]: > 100 µM
- TGI [45]: > 100 µM
- TGI [46]: > 100 µM
- TGI [47]: > 100 µM
- TGI [48]: > 100 µM
- TGI [49]: > 100 µM
- TGI [59]: > 100 µM
- TGI [50]: > 100 µM
- TGI [51]: > 100 µM
- TGI [52]: > 100 µM
- TGI [53]: > 100 µM
- TGI [54]: > 100 µM
- TGI [55]: > 100 µM
- TGI [56]: > 100 µM
- TGI [57]: 44.9 µM
